In patent US8188070B2, “Method of treating neurological diseases and disorders” (The Trustees of the University of Pennsylvania, priority 2002, dated 2012):

Legend:
S5 cells [1] = assay: High throughput screen: ATP level (viable cells) in S5 cells with reduced SMN; type: cell-based, chicken; settings: for EC50 / Emax: Gallus gallus, S5 cells, 18 ng/ml tet, 0.5 to 20 μM; for EC50: ATP level, read-out: EC50 (effective concentration for half maximum activity); for Emax: percentage increase of ATP level relative to cells treated with DMSO only, read-out: Maximum Activity (%)
Procedure: In the SMN conditional knockout cell line, S5, the endogenous smn gene is disrupted by homologous recombination, and the SMN protein is stably expressed from an SMN cDNA under the control of a tetracycline (tet)-repressible promoter (Wang and Dreyfuss (2001) supra).
Libraries of compounds were screened against the S5 cell line. […] The cells were incubated for an additional 72 hours and the number of viable cells in each well was determined by measuring the ATP level in the cell lysate, a sensitive assay commonly used to assess cell viability in HTS (Crouch, et al. (1993) J. Immunol. Methods 160:81-88). […] Activity of the compounds was measured as the difference between the sample and the average of the controls.
(§1) The activities of all compounds were further examined at concentrations ranging from 0.5 to 20 μM. […] The activity of each compound was determined as a percentage increase of the ATP level, reflecting the number of viable cells, relative to cells treated with an equal volume of DMSO only.
The chicken pre-B cell line DT40, the smn conditional knockout cell line S5 and the asf/sf2 conditional knockout cell line ASF-DT40 (Wang, et al. (1996) supra) were maintained using known methods (Wang and Dreyfuss (2001) supra). To reduce the SMN level, S5 cells were incubated with 18 ng/ml tetracycline hydrochloride (tet). Similarly, ASF-DT40 cells were treated with 14 ng/ml tet to partially deplete the ASF/SF2 protein.
After being incubated in medium containing 18 ng/ml tet for 24 hours, S5 cells were dispensed into 96-well plates at 120 μl per well. Compounds were added to these cells by pipetting 0.4 μl of the 3 mM libraries into each well to reach a final concentration of 10 μM. The 96-well plates were further incubated for 72 hours at 37° C. with 5% CO2. […] Luminescence was read on a Wallac Victor2 multi-channel plate reader (Perkin-Elmer, Boston, Mass.). The cellular ATP level is a direct measure of the number of viable cells in each well (Crouch, et al. (1993) supra). Data from luminescence readings were analyzed with MICROSOFT® Excel.

S5 cells [2] = settings: for highest concentration at which there is no apparent cell toxicity: S5 cells
Procedure: as §1
SMN protein levels were also determined. Total cell lysates from treated cells were prepared and analyzed by immunoblotting with an anti-SMN antibody. […] The same blots were probed with antibodies against two other abundant proteins, Y14^10 and β-tubulin, to provide an internal control for the amount of cell lysate loaded on the gel.

S5 cells [3] = assay: Cell number determination in S5 cells cultured with 18 ng/ml tet; type: cell-based, chicken; settings: after 96 hours
Procedure: To determine an accurate measure of the number of viable cells, cell numbers were also determined.

[4] = high-throughput screening system

| SMILES | EC50 (S5 cells [1]) | Emax (S5 cells [1]) | further results |
| --- | --- | --- | --- |
| Clc1ccc(C(c2ccc(Cl)cc2)n2cc[n+](CC(OCc3ccc(Cl)cc3Cl)c3ccc(Cl)cc3Cl)c2)cc1 (centres unmarked) [Calmidazolium, reference compound] |  |  | concentration improving growth of S5 cells (as low as) (S5 cells [1]; [4]): 215 nM; growth of S5 cells (S5 cells [1]; [4]): improved the growth of S5 cells |
| CN(C)CCC=C1c2ccccc2CCc2ccccc21 [Compound 1] | 3000 nM | 30% |  |
| CNCCCN1c2ccccc2CCc2ccccc21 [Compound 2] | 3000 nM | 30% |  |
| CN(C)CC/C=C1/c2ccccc2COc2ccccc21 [Compound 3] | 5000 nM | 60% |  |
| CN(C)CCCN1c2ccccc2CCc2ccccc21 [Compound 4] | 4000 nM | 35% |  |
| CN1CCN2c3ccccc3Cc3ccccc3C2C1 (centres unmarked) [Compound 5] | 5000 nM | 75% | cell toxicity (S5 cells [2]): low cell toxicity |
| CC(CN(C)C)CN1c2ccccc2CCc2ccccc21 (centres unmarked) [Compound 6] | 2500 nM | 50% |  |
| CN(C)CCC=C1c2ccccc2C=Cc2ccccc21 [Compound 7] | 3000 nM | 45% |  |
| CSc1ccc2c(c1)C(N1CCN(C)CC1)Cc1ccccc1S2 (centres unmarked) [Compound 8] | < 1000 nM | 25% |  |
| CN(C)CCCN1c2ccccc2CCc2ccc(Cl)cc21 [Compound 9] | 1500 nM | 50% |  |
| CN1CCN(C2=Nc3cc(Cl)ccc3Nc3ccccc32)CC1 [Compound 10] | 3000 nM | 30% |  |
| CN(C)CCCN1c2ccccc2Sc2ccccc21 [Compound 11] | 2500 nM | 60% |  |
| CC(CN1c2ccccc2Sc2ccccc21)N(C)C (centres unmarked) [Compound 12] | 2500 nM | 75% | increase in cell number over control cells treated with DMSO alone (S5 cells [3]): three to four-fold increase in cell number |
| CC(CN(C)C)CN1c2ccccc2Sc2ccccc21 (centres unmarked) [Compound 14] | 2500 nM | 40% |  |
| CCN(CC)C(C)CN1c2ccccc2Sc2ccccc21 (centres unmarked) [Compound 15] | 2000 nM | 70% |  |
| CCC(=O)c1ccc2c(c1)N(CC(C)N(C)C)c1ccccc1S2 (centres unmarked) [Compound 16] | 1000 nM | 60% | highest concentration at which there is no apparent cell toxicity (S5 cells [2]): 4 µM |
| CSc1ccc2c(c1)N(CCC1CCCCN1C)c1ccccc1S2 (centres unmarked) [Compound 17] | 1500 nM | 80% | highest concentration at which there is no apparent cell toxicity (S5 cells [2]): 4 µM; increase in cell number over control cells treated with DMSO alone (S5 cells [3]): three to four-fold increase in cell number |
| CN(C)CCCN1c2ccccc2Sc2ccc(C(F)(F)F)cc21 [Compound 18] | 1500 nM | 25% |  |
| CN(C)CC/C=C1\c2ccccc2Sc2ccc(Cl)cc21 [Compound 19] | 2000 nM | 30% |  |
| CN(C)CCCN1c2ccccc2Sc2ccc(Cl)cc21 [Compound 20] | 1000 nM | 35% | highest concentration at which there is no apparent cell toxicity (S5 cells [2]): 4 µM |
| CN1CCC(OC(c2ccccc2)c2ccccc2)CC1 [Compound 21] |  | 55% |  |
| O=C(CCCN1CC=C(n2c(=O)[nH]c3ccccc32)CC1)c1ccc(F)cc1 [Compound 22] |  | 50% |  |
| CCN1CCCC(OC(=O)C(c2ccccc2)c2ccccc2)C1 (centres unmarked) [Compound 23] |  | 50% |  |
| CN1Cc2c(N)cccc2C(c2ccccc2)C1 (centres unmarked) [Compound 24] |  | 35% |  |
| COC(=O)[C@H](c1ccccc1Cl)N1CCc2sccc2C1 [Compound 25] | 7000 nM | 100% |  |
| Cc1nc2sccn2c(=O)c1CCN1CCC(=C(c2ccc(F)cc2)c2ccc(F)cc2)CC1 [Compound 27] |  | 80% |  |
| O=C(CCCN1CCC2(CC1)C(=O)NCN2c1ccccc1)c1ccc(F)cc1 [Compound 29] |  | 140% |  |
| COc1ccc(S(=O)(=O)Nc2ccccc2CN(C)CC=Cc2ccc(Cl)cc2)cc1 [KN-92, 2-[N-(4-Methoxybenzenesulfonyl)] amino-N-(4-chlorocinnamyl)-N-methylbenzylamine, reference compound] |  |  | growth of S5 cells (S5 cells [1]; [4]): did not affect the growth of S5 cells |
| COc1ccc(S(=O)(=O)N(CCO)c2ccccc2CN(C)CC=Cc2ccc(Cl)cc2)cc1 [KN-93, reference compound] |  |  | growth of S5 cells (S5 cells [1]; [4]): improved the growth of S5 cells |
